The values below come from patent publication US8124629B2, “Naphthylacetic acids” (Hoffmann-La Roche Inc., priority 2008, dated 2012).

For orientation: IC50 means the point on the concentration scale where inhibition reaches its midpoint.

This test addresses T1, human CRTH2 (Homo sapiens, UniProt Q9Y5Y4).
T1 sequence (Q9Y5Y4 1-395): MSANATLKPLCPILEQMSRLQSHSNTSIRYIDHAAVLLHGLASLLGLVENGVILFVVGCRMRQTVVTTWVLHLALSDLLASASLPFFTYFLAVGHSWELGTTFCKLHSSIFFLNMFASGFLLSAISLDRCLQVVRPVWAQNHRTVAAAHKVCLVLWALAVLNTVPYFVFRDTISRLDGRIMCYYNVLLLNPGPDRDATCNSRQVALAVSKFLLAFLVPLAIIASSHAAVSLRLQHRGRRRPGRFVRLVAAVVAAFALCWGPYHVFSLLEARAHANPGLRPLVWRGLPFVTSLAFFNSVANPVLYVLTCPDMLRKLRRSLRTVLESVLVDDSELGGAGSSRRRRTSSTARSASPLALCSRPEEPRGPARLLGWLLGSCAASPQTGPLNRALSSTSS
Put plainly: Human CRTH2 Receptor Binding Assay (whole cell, [3H]ramatroban). Further details: expressed in transfected cells; host or cells: CHO-K1. The settings on record: CHO-K1 cells expressing human CRTH2 and G-alpha16; 20 nM [3H]ramatroban; 1 hour, room temperature. From the text:
A whole cell receptor binding assay using [^3H]ramatroban as the competing radioactive ligand was employed to evaluate the compound binding activity to human CRTH2. The radioactive ligand [^3H]ramatroban was synthesized according to Sugimoto et. al. (Eur. J. Pharmacol. 524, 30-37, 2005) to a specific activity of 42 Ci/mmol.
A cell line stably expressing human CRTH2 was established by transfecting CHO-K1 cells with two mammalian expression vectors that harbored human CRTH2 and G-alpha16 cDNAs, respectively, using FuGene® 6 transfection reagent (from Roche). Stable clones expressing CRTH2 were selected by staining each clone with BM16 (BD Pharmingen™ from BD Biosciences, a division of Becton, Dickinson and Company), which is a rat monoclonal antibody to human CRTH2. The cells were maintained as monolayer cultures in Ham's F-12 medium containing 10% fetal bovine serum, 100 units/mL penicillin, 100 μg/mL streptomycin, 2 mM glutamine, 0.5 mg/mL G418 (geneticin) for CRTH2, and 0.2 mg/mL hygromycin-B (for G-alpha 16). For whole cell receptor binding assay, the monolayer cells were rinsed once with PBS (phosphate buffered saline), dissociated using ethylenediaminetetraacetate (Versene™ EDTA from Lonza Inc.), and suspended in PBS containing 10 mM MgCl2 and 0.06% BSA (bovine serum albumin) at 1.5×10^6 cells/mL.
The binding reactions (0.2 mL) were performed in 96-well plates at room temperature in PBS containing 1.5×10^5 cells, 10 mM MgCl2, 0.06% BSA, 20 nM [^3H]ramatroban, and test compound at various concentrations. After 1 hour of binding reactions, the cells were harvested on GF™/B filter microplates (microtiter plates with embedded glass fiber from Perkin Elmer, Inc.) and washed 5 times with PBS using a Filtermate™ Harvester (a cell harvester that harvests and washes cells from microplates from PerkinElmer, Inc.). The radioactivities bound to the cells were determined using a microplate scintillation counter (TopCount® NXT, from PerkinElmer, Inc.) after adding 50 μL of Microscint™ 20 scintillation fluid (from PerkinElmer, Inc.) to each well of the filter plates. The radioactivity from non-specific binding was determined by replacing compound with 10 μM of 15(R)-15-methyl PGD2 (from Cayman Chemical Company) in the reaction mixtures. The radioactivity bound to the cells in the absence of compound (total binding) was determined by replacing compound with 0.25% of DMSO (dimethyl sulfoxide) in the reaction mixture. Specific binding data were obtained by subtracting the radioactivity of non-specific binding from each binding data.
The IC50 value is defined as the concentration of the tested compound that is required for 50% inhibition of total specific binding. In order to calculate the IC50 value, the percent inhibition data were determined for 7 concentrations for each compound. The percent inhibition for a compound at each concentration was calculated according to the following formula, [1-(specific binding in the presence of compound)/(total specific binding)]×100. The IC50 value was then obtained by fitting the percent inhibition data to a sigmoidal dose-response (4 parameter logistic) model in the XLfit® software Excel add-in program [from ID Business Solutions Ltd., model 205, where F(x)=(A+(B−A)/(1+((C/×)^D)))].

On to `Cc1c(CC(=O)O)cc2ccc(F)cc2c1Cc1ccc(S(=O)(=O)Cc2ccccc2)cc1` [Example 11-3, [6-Fluoro-3-methyl-4-(4-phenylmethanesulfonyl-benzyl)-naphthalen-2-yl]-acetic acid], for which the IC50 stood at 2.7 nM. This counts as single-digit nanomolar.

`CS(=O)(=O)c1ccc(C(=O)c2cc(CC(=O)O)cc3ccc(F)cc23)cc1C(F)(F)F` [Example 2-18, [6-Fluoro-4-(4-methanesulfonyl-3-trifluoromethyl-benzoyl)-naphthalen-2-yl]-acetic acid] gave an IC50 of 4.2 nM.

`CCS(=O)(=O)c1ccc(C(=O)c2cc(CC(=O)O)cc3ccc(F)cc23)cc1` [Example 2-13, [4-(4-Ethanesulfonyl-benzoyl)-6-fluoro-naphthalen-2-yl]-acetic acid]: the IC50 worked out at 3 nM.

Consider `CS(=O)(=O)c1ccc(C(O)c2cc(CC(=O)O)cc3ccc(F)cc23)cc1` (centres unmarked) [Example 16-5, {6-Fluoro-4-[hydroxy-(4-methanesulfonyl-phenyl)-methyl]-naphthalen-2-yl}-acetic acid], for which the IC50 is 8 nM.

For `CCc1cc(C(=O)c2cc(CC(=O)O)cc3ccc(F)cc23)ccc1S(C)(=O)=O` [Example 2-19, [4-(3-Ethyl-4-methanesulfonyl-benzoyl)-6-fluoro-naphthalen-2-yl]-acetic acid], the IC50 worked out at 2.3 nM.

The molecule `CCS(=O)(=O)c1ccc(C(F)(F)c2cc(CC(=O)O)cc3ccc(F)cc23)cc1` [Example 17-3, {4-[(4-Ethanesulfonyl-phenyl)-difluoro-methyl]-6-fluoro-naphthalen-2-yl}-acetic acid] registered an IC50 of 3.9 nM.

In the case of `Cc1c(CC(=O)O)cc2ccc(Cl)cc2c1Cc1ccc(S(C)(=O)=O)cc1` [Example 10-12, [6-Chloro-4-(4-methanesulfonyl-benzyl)-3-methyl-naphthalen-2-yl]-acetic acid], the IC50 came to 10 nM.

In turn, `CCS(=O)(=O)c1ccc(C(=O)c2c(C)c(CC(=O)O)cc3ccc(F)cc23)cc1` [Example 6-3, [4-(4-Ethanesulfonyl-benzoyl)-6-fluoro-3-methyl-naphthalen-2-yl]-acetic acid] yielded an IC50 of 2.4 nM. Against the preceding molecule, the IC50 is about 4.2-fold lower.

For the molecule `Cc1c(CC(=O)O)cc2ccc(F)cc2c1Cc1ccc(S(=O)(=O)c2ccccc2)cc1` [Example 10-3, [4-(4-Benzenesulfonyl-benzyl)-6-fluoro-3-methyl-naphthalen-2-yl]-acetic acid], the IC50 came out at 3.2 nM.

For `COC(=O)c1cccc(Cc2c(C)c(CC(=O)O)cc3ccc(F)cc23)c1` [Example 15-5, 3-(3-Carboxymethyl-7-fluoro-2-methyl-naphthalen-1-ylmethyl)-benzoic acid methyl ester], the IC50 came to 27.6 nM.

The molecule `CS(=O)(=O)c1ccc(Cc2cc(CC(=O)O)cc3ccc(F)cc23)cc1C(F)(F)F` [Example 8-6, [6-Fluoro-4-(4-methanesulfonyl-3-trifluoromethyl-benzyl)-naphthalen-2-yl]-acetic acid] returned an IC50 of 5.4 nM.

The molecule `Cc1c(CC(=O)O)cc2ccc(F)cc2c1Cc1ccc(OCc2ccccc2)cc1` [Example 10-8, [4-(4-Benzyloxy-benzyl)-6-fluoro-3-methyl-naphthalen-2-yl]-acetic acid] displayed an IC50 of 5 nM.

Turning to `CC(C)(C)OC(=O)N1CCN(S(=O)(=O)c2ccc(C(=O)c3cc(CC(=O)O)cc4ccc(F)cc34)cc2)CC1` [Example 4-2], the IC50 amounted to 26.7 nM. This IC50 is about 5.3-fold higher than that of the molecule before.

Turning to `COC(c1ccc(S(C)(=O)=O)cc1)c1cc(CC(=O)O)cc2ccc(F)cc12` (centres unmarked) [Example 18-1, {6-Fluoro-4-[(4-methanesulfonyl-phenyl)-methoxy-methyl]-naphthalen-2-yl}-acetic acid], the IC50 was 40.4 nM.

As to `CCS(=O)(=O)c1ccc(C(=O)c2cc(CC(=O)O)cc3ccc(F)cc23)c(Cl)c1` [Example 1-4, [4-(2-Chloro-4-ethanesulfonyl-benzoyl)-6-fluoro-naphthalen-2-yl]-acetic acid], the IC50 was 11.2 nM.

The molecule `Cc1c(CC(=O)O)cc2ccc(F)cc2c1Cc1ccc(F)cc1` [Example 15-3, [6-Fluoro-4-(4-fluoro-benzyl)-3-methyl-naphthalen-2-yl]-acetic acid] yielded an IC50 of 32.8 nM.

On to `CCS(=O)(=O)c1ccc(Cc2c(C)c(CC(=O)O)cc3ccc(F)cc23)cc1` [Example 13-1, [4-(4-Ethanesulfonyl-benzyl)-6-fluoro-3-methyl-naphthalen-2-yl]-acetic acid], for which the IC50 is 3.1 nM.

As to `CS(=O)(=O)c1ccc(C(=O)c2cc(CC(=O)O)cc3ccc(F)cc23)c(F)c1` [Example 2-17, [6-Fluoro-4-(2-fluoro-4-methanesulfonyl-benzoyl)-naphthalen-2-yl]-acetic acid], the IC50 worked out at 14.5 nM.

As for `O=C(O)Cc1cc(C(=O)c2ccc(S(=O)(=O)N3CCCCC3)cc2)c2cc(F)ccc2c1` [Example 2-21, {6-Fluoro-4-[4-(piperidine-1-sulfonyl)-benzoyl]-naphthalen-2-yl}-acetic acid], the IC50 came out at 3.8 nM.

`Cc1c(CC(=O)O)cc2ccc(F)cc2c1Cc1cccc(S(C)(=O)=O)c1` [Example 10-2, [6-Fluoro-4-(3-methanesulfonyl-benzyl)-3-methyl-naphthalen-2-yl]-acetic acid]: the IC50 amounted to 54 nM.

For the molecule `CS(=O)(=O)c1ccc(C(=O)c2cc(CC(=O)O)cc3ccc(F)cc23)cc1` [Example 2-1, [6-Fluoro-4-(4-methanesulfonyl-benzoyl)-naphthalen-2-yl]-acetic acid], the IC50 came to 4.3 nM.

Molecule `Cc1cc(S(C)(=O)=O)ccc1C(=O)c1cc(CC(=O)O)cc2ccc(F)cc12` [Example 2-5, [6-Fluoro-4-(4-methanesulfonyl-2-methyl-benzoyl)-naphthalen-2-yl]-acetic acid] had an IC50 of 15.1 nM.

Molecule `Cc1c(CC(=O)O)cc2ccc(F)cc2c1Cc1ccccc1S(=O)(=O)c1ccccc1` [Example 14-1] returned an IC50 of 5.4 nM. This IC50 is about 2.8-fold lower than that of the molecule before.

`Cc1cc(S(=O)(=O)N2CCOCC2)ccc1C(=O)c1cc(CC(=O)O)cc2ccc(F)cc12` [Example 2-23, {6-Fluoro-4-[2-methyl-4-(morpholine-4-sulfonyl)-benzoyl]-naphthalen-2-yl}-acetic acid] returned an IC50 of 3.7 nM.

Consider `CS(=O)(=O)c1ccc(C(=O)c2cc(CC(=O)O)cc3ccc(Cl)cc23)cc1` [Example 2-27, [6-Chloro-4-(4-methanesulfonyl-benzoyl)-naphthalen-2-yl]-acetic acid], for which the IC50 turned out to be 6.4 nM.

For the molecule `CS(=O)(=O)c1ccc(C(=O)c2cc(CC(=O)O)cc3ccccc23)cc1` [Example 2-3, [4-(4-Methanesulfonyl-benzoyl)-naphthalen-2-yl]-acetic acid], the IC50 is 17 nM.

As to `CS(=O)(=O)c1cc(C(=O)c2cc(CC(=O)O)cc3ccc(F)cc23)ccc1F` [Example 2-31, [6-Fluoro-4-(4-fluoro-3-methanesulfonyl-benzoyl)-naphthalen-2-yl]-acetic acid], the IC50 was found to be 103 nM.

`CS(=O)(=O)c1ccc(C(=O)c2cc(CC(=O)O)cc3cc(F)c(F)cc23)cc1` [Example 2-6, [6,7-Difluoro-4-(4-methanesulfonyl-benzoyl)-naphthalen-2-yl]-acetic acid] returned an IC50 of 15.5 nM.

`Cc1ccc2cc(CC(=O)O)cc(C(=O)c3ccc(S(C)(=O)=O)cc3)c2c1` [Example 2-28, [4-(4-Methanesulfonyl-benzoyl)-6-methyl-naphthalen-2-yl]-acetic acid]: the IC50 came to 21.3 nM.
